Measurements published in patent publication US10399968B2, “Hydroxyalkyl thiadiazole derivatives” (Daiichi Sankyo Company, Limited, priority 2015, dated 2019).
Values after ≈ are worked out from the molar mass of the structure shown. Where two headings read alike, the source gives them in different places.

Tests used:
[1] = Animal infection models (background statement); conditions: in vivo
[2] = Solubility for oral absorption (background statement); format: physicochemical; conditions: compared to compounds disclosed in this patent application
[3] = test system: Clostridium difficile ATCC 43255; assay: Susceptibility of Clostridium difficile, agar dilution MIC; format: cell-based; conditions: Clostridioides difficile, ATCC43255, anaerobic
Description: The antibacterial activity of the compounds of the present invention against Clostridium difficile clinical isolates was tested by the agar dilution method. The assay was carried out according to the CLSI guidelines for managing the procedures of susceptibility tests “M11-A8, Methods for Antimicrobial Susceptibility Testing of Anaerobic Bacteria; Approved Standard-Eighth Edition. CLSI document (2012)”.
The test strains were spread on supplemented Brucella agar (SBA) plates and grown at 36° C. under anaerobic condition for 42 to 48 hours. The test compound dilutions were prepared with Brucella broth and SBA plates containing dilution of test compound were prepared. As an anaerobic growth control, plates not containing the test compound were also prepared. Colonies grown on plates were suspended with Brucella broth to adjust the turbidity to 0.5 McFarland using a densitometer. Suspension (1-2 μL) of the test strains was inoculated onto each agar surface by using a bacterial suspension inoculation apparatus. After anaerobic incubation at 36° C. for 42 to 48 hours, absence and presence of growth of each strain were examined with unaided eye. The MIC was determined at which a marked reduction occurs in the appearance of growth on the test plate as compared to that of growth on the anaerobic control plates.

S. aureus ATCC 29213 = assay: Susceptibility of bacteria, broth microdilution MIC; format: cell-based; conditions: Staphylococcus aureus, ATCC29213
Description: The antibacterial activity of the compounds of the present invention was tested by the broth microdilution method. The assay was carried out according to the CLSI guidelines for managing the procedures of susceptibility tests: “M7-A7 Methods for Dilution Antimicrobial Susceptibility Tests for Bacteria That Grow Aerobically; Approved Standard-Seventh Edition (2006)”. Test strains were grown on appropriate agar plates overnight. A broth containing the test compound diluted serially 2-fold and diluents were dispensed at 100 μL to each well of a 96-well microplate. As a growth control, a well with a broth not containing the test compound was also prepared. Colonies grown on the plates were suspended in saline, adjusted to 0.5 McFarland (OD625=0.08 to 0.10) using a colorimeter, and then diluted 10-fold with saline. The bacterial suspension was inoculated at 4 μL into each well of the microplate using a bacterial suspension inoculation apparatus. The inoculated microplate was incubated at 35° C. overnight (about 20 hours). The growth condition was observed by the naked eye, and the minimum concentration to inhibit bacterial proliferation was defined as a minimum inhibitory concentration (MIC). The MICs of compounds disclosed herein for E. faecium, Streptococcus pneumoniae and Haemophilus influenzae are shown in Table 2, while for S. aureus in Table 3.

[4] = target: Clostridium difficile DNA gyrase (Clostridioides difficile, UniProt Q18C89); assay: DNA supercoiling inhibition assay; format: biochemical; conditions: supercoiling of relaxed pBR322 DNA, 60 minutes at 37° C.
Description: DNA supercoiling assays (30 μL reaction) were performed in a buffer containing 15 mM Tris-HCl pH 7.5, 13% glycerol, 6 mM MgCl2, 0.1 mg/mL BSA, 70 mM KCl, 1 mM dithioerythritol, 400 ng of DNA substrate (relaxed pBR322 DNA) and different concentrations of test compounds and/or standards. The dilutions of test compounds and standards were prepared in 20% dimethylsulfoxide (DMSO) and added 3 μL/reaction. The reaction was started by adding 2 μL amounts of Clostridium difficile DNA gyrase into the reaction mixtures and reactions were allowed to proceed for 60 minutes at 37° C. A reaction was carried out by adding 3 μL of 20% DMSO instead of test compound as full reaction control, and another reaction was carried out by adding sterile water instead of the enzyme as no reaction control.
Reactions were stopped by the addition of 5 μL of 6×loading dye and were analyzed by electrophoresis through 1.0% agarose gels with 1×TAE running buffer. Gels were run at 60 V for 3 hours, stained with EtBr, and visualized by Gel Doc system (BioRad). Intensity of the supercoiled DNA bands was quantified, and the IC50 of Clostridium difficile DNA gyrase was calculated using Graph Pad Prism.

[5] = Solubility in water (JP1 / JP2 fluids); format: physicochemical; conditions: thermodynamic from solid
Description: A 10 mmol/L solution of the test compound was prepared in DMSO and dispensed 100 μL of 10 mmol/L DMSO stock solutions into labeled glass tubes in duplicate, one for Japanese Pharmacopeia First Fluid (JP1) and second for Japanese Pharmacopeia Second Fluid (JP2). After evaporation of DMSO from each tube, 500 μL of JP1 and JP2 fluid were added in each tube, respectively. These tubes were sonicated for 1 minute and placed on shaker for 30 minutes with an interval of 30 seconds at every 5 minute. Tubes were placed in dark at room temperature for 1 hour and solution was filtered through membrane filter. The filtrate was diluted 2-fold and 10-fold. The resulting test solutions was analyzed and quantified against the standards using UPLC (standard preparation—10 mmol/L solution in DMSO is serially diluted with 50% aqueous acetonitrile solution to prepare 2 solutions; 100 μmol/L standard solution and 5 μmol/L standard solutions).

[6] = test system: Clostridium difficile 2009155, a NAP1/027 strain; assay: Hamster CDI model; format: in vivo; conditions: 0.3 mg/kg/day by oral route, 5 days
Description: The in vivo efficacy of test compounds were evaluated in a hamster CDI model caused by Clostridium difficile 2009155, a NAP1/027 strain. Syrine hamsters (6-8-weeks old) were primed with a single subcutaneous injection of clindamycin (30 mg/kg) 1-5 days prior to infection. Hamsters were infected by oral gavage with 1 ml of spore suspension ([…]) prepared in PBS. The drug was administered to the hamsters 6 hours post infection by oral or subcutaneous route at an interval of 24 hours for 5 days. The death and survival of the non-treated group and the drug-administered group were recorded once daily for 35 days.

P. acnes ATCC 6921 = assay: Susceptibility of P. acnes, agar dilution MIC; format: cell-based; conditions: Cutibacterium acnes, ATCC6921, anaerobic
Description: (§1) The antibacterial activity of the compounds of the present invention against P. acnes clinical isolates was tested by the agar dilution method. The assay was carried out according to the CLSI guidelines document (Clinical and Laboratory Standards Institute, 2012 & 2016). The test strains were spread on supplemented Brucella agar (SBA) plates and grown for 42 to 48 hours at 36° C. under anaerobic condition. The test compound dilutions were prepared with Brucella broth and SBA plates containing dilution of test compound were prepared. As an anaerobic growth control and to check the aerobic contamination, plates not containing the test compound were also prepared. Colonies grown on plates were suspended with Brucella broth to adjust the turbidity to 0.5 McFarland using a densitometer. Suspension (1-2 μL) of the test strains was inoculated onto each agar surface by using a bacterial suspension inoculation apparatus (multipoint inoculator). After anaerobic incubation for 42 to 48 hours at 36° C., absence and presence of growth of each strain on growth control plates and test compounds plate were examined with unaided eye. The MIC was determined at which a marked reduction occurs in the appearance of growth on the test plate as compared to that of growth on the anaerobic control plates.

P. acnes ATCC 6523 = assay: Susceptibility of P. acnes, agar dilution MIC; format: cell-based; conditions: Cutibacterium acnes, ATCC6523, anaerobic
Description: as §1

P. acnes IHMA 775486 = assay: Susceptibility of P. acnes, agar dilution MIC; format: cell-based; conditions: Cutibacterium acnes, IHMA775486, anaerobic
Description: as §1

P. acnes IHMA 103740 = assay: Susceptibility of P. acnes, agar dilution MIC; format: cell-based; conditions: Cutibacterium acnes, IHMA103740, anaerobic
Description: as §1

[7] = test system: N. gonorrhoeae clinical isolates; assay: Susceptibility of N. gonorrhoeae, agar dilution MIC; format: cell-based
Description: The antibacterial activity of the compounds of the present invention against N. gonorrhoeae clinical isolates was tested by the agar dilution method [Clinical and Laboratory Standards Institute, 2016]. The test strains were spread on chocolate agar plates and grown for 20-24 h at 36° C. in 5% carbon dioxide. The test compound dilutions were prepared with broth and agar MIC plates were prepared using GC agar base supplemented with haemoglobin and 1% IsoVitaleX plates. As growth control plates not containing the test compound were also prepared. Colonies grown on plates were suspended with broth to adjust the turbidity to 0.5 McFarland using a densitometer. Suspension (1-2 μL) of the test strains was inoculated onto each agar surface by using a bacterial suspension inoculation apparatus (multipoint inoculator). After aerobic incubation for 20-24 h at 36° C. in 5% carbon dioxide, absence and presence of growth of each strain on growth control plates and test compounds plate were examined with unaided eye. The MIC was determined at which a marked reduction occurs in the appearance of growth on the test plate as compared to that of growth on the aerobic control plates.

Chain of Clostridium difficile DNA gyrase (Q18C90 entry or part of it): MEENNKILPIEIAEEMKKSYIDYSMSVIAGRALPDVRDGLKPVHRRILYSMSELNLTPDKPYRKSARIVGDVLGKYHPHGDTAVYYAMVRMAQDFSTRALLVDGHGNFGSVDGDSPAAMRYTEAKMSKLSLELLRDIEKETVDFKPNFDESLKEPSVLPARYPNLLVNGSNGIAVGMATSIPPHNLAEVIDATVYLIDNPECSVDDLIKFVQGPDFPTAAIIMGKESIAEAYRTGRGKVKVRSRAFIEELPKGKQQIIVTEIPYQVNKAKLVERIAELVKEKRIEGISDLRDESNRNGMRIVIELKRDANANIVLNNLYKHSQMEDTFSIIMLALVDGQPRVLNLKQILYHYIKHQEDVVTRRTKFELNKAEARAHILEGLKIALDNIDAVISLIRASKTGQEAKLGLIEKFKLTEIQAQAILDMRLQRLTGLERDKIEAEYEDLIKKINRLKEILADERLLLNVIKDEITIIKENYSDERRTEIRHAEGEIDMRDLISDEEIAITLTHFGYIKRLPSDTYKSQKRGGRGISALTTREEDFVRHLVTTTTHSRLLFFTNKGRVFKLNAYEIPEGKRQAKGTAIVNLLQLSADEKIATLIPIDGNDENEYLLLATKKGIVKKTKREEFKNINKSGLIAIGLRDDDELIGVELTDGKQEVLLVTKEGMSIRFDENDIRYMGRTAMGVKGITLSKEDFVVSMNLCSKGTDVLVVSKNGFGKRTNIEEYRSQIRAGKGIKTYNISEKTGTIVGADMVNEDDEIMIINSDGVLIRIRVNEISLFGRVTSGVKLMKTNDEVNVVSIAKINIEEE
Chain of Clostridium difficile DNA gyrase (Q18C89 entry or part of it): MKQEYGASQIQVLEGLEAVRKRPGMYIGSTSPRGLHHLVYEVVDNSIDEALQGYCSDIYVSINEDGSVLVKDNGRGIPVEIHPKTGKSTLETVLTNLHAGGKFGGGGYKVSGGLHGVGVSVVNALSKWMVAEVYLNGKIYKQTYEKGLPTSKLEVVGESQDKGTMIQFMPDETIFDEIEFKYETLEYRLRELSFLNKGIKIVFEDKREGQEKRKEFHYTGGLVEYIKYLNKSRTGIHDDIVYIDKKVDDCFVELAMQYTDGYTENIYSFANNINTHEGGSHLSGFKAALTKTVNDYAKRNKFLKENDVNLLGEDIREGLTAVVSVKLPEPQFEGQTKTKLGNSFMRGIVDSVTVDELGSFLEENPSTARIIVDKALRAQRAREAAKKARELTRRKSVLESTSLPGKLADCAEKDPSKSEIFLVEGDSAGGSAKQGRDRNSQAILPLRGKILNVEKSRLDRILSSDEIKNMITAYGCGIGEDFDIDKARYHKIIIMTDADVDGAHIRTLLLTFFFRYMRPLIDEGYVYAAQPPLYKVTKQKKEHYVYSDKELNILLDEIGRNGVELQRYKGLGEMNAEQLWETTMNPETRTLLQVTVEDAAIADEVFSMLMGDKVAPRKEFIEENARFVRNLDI

SMILES | efficacy in animal infection models [1] | solubility [2] | MIC [3] [µg/mL] | MIC (S. aureus ATCC 29213) [µg/mL] | IC50 [4] [nM] | solubility at 30 min ([5]; Japanese Pharmacopeia First Fluid (JP1), pH 1.2, simulated gastric fluid, read-out: Solubility JP1) [µg/mL] | solubility at 30 min ([5]; Japanese Pharmacopeia Second Fluid (JP2), pH 6.8, aqueous buffer, read-out: Solubility JP2) [µg/mL] | survival on day 35 [6] [%] | MIC (P. acnes ATCC 6921) [µg/mL] | MIC (P. acnes ATCC 6523) [µg/mL] | MIC (P. acnes IHMA 775486) [µg/mL] | MIC (P. acnes IHMA 103740) [µg/mL] | MIC [7] [µg/mL]
CCO[C@H]1CN(c2nncs2)CC[C@H]1NC(=O)c1nc(Cl)c(CC)[nH]1 [Compound No. 150] | not being efficacious | low |  |  |  |  |  |  |  |  |  |  | 
CCc1[nH]c(C(=O)N[C@@H]2CCN(c3nnc(C(C)(O)CO)s3)C[C@@H]2OC)nc1Cl (stereo in doubt) [Compound No. 10, 4-Chloro-N-[(3S,4R)-1-{5-[(2R)-1,2-dihydroxypropan-2-yl]-1,3,4-thiadiazol-2-yl}-3-methoxypiperidin-4-yl]-5-ethyl-1H-imidazole-2-carboxamide] |  |  | 0.06 (≈ 0.135 µM) | 1 (≈ 2.25 µM) | 60.7 | 887 (≈ 1990 µM) | 429 (≈ 964 µM) | 100 | 0.125 (≈ 0.281 µM) | 0.125 (≈ 0.281 µM) | 0.125 (≈ 0.281 µM) | 0.125 (≈ 0.281 µM) | 0.125 (≈ 0.281 µM)
